Data as given in patent US8691864B2, “Agents useful for reducing amyloid precursor protein and treating dementia and methods of use thereof” (priority 2000, dated 2014).

Legend:
βAPP [1] = experiment: βAPP protein levels in U373 MG astrocytoma cells, western blot; format: cell-based; details: FIGS. 6A-C, alone or with PD98059 or LY294002
Procedure: SK-N-SH neuroblastoma cells were cultured on 60 mm dishes at a concentration of 3×10^6 cells, and SH-SY-5Y neuroblastoma and U373 astrocytorna cell lines were plated in 100 mm dishes at a concentration of 3×10^5 cells. The cells were allowed to grow in complete medium ([…], 2 mM glutamine in DMEM) for 3 to 4 days until they reached 70% confluence. To start the experiment, spent medium was removed and replaced with fresh medium (SKNSH—4 ml of DMEM+0.5% FBS; U373—5 ml of DMEM+2.5% FBS) containing 0, 5, or 50 μM phenserine. The cells were incubated at 37° C., 5% CO2 for the specific times indicated. Different media and sera were purchased from Life Technologies (Gaithersberg, Md.). […]
At each time point, the spent medium was collected and stored at −70° C. for later analysis of secretory βAPP levels. The cells were washed twice with PBS, pH 7.4 and incubated on ice for 15 min for lysis with 100 μL of lysis buffer (20 mM HEPES, 2 mM EGTA, 50 mM (β-glycophosphate, 1 mM sodium orthovanadate, 1% Triton X-100, 10% glycerol) containing appropriate protease inhibitors (2 mM PMSF, 100 μg/mL aprotinin, 25 μM leupeptin and 20 μg/mL soybean trypsin inhibitor). Each lysate was microcentrifuged for 15 min at 14 000 rpm. Protein levels of the supernatant were analyzed by the Bradford protein assay (BioRad, Melville, N.Y.). […]

total Aβ peptide = experiment: total Aβ ELISA in SK-N-SH conditioned medium; format: cell-based, human; details: 50 μM
Procedure: Total Aβ peptide levels in SH-SY-SY and SK-N-SH cultured samples were assayed by a sensitive ELISA (Suzuki et al., 1994). For total Aβ measurements in conditioned medium, the rabbit polyclonal antibody #3160 (1-40 residues of Aβ) was used as a capture antibody for all species of Aβ peptide (Aβ1-40 and Aβ1-42) while monoclonal antibody 4G8 (17-25 residues of Aβ) was used to detect Aβ peptide levels, and the values were expressed as the mean of six independent assays.
Likewise, (+)-phenserine reduced BAPP protein levels and total Aβ peptide levels at 16 hours (FIG. 5).

βAPP [2] = experiment: βAPP levels in brain cortex and CSF of transgenic mice; format: in vivo; details: 2.5 mg/kg i.p., once daily for 3 weeks

Q: Which “reduction of βAPP protein levels, densitometric quantification” value (βAPP [1]) does the source give for `CN1CC[C@@]2(C)c3cc(OC(=O)Nc4ccccc4)ccc3N(C)[C@@H]12` [(−)-phenserine] here?
A: > 25%

Q: And the “reduction of total Aβ versus untreated controls” value (total Aβ peptide; 8 hours)?
A: 14%

Q: What about the “reduction of total Aβ versus untreated controls” value (total Aβ peptide; 16 hours) of the same molecule?
A: 31%

Q: And the “reduction of βAPP levels in CSF” value (βAPP [2])?
A: 55%
